From ChEMBL document CHEMBL4002601, “A triple exon-skipping luciferase reporter assay identifies a new CLK inhibitor pharmacophore” (Bioorg Med Chem Lett, 2017)

Assays:
[1] = molecular target: PI3K p110 beta/p85 alpha (Homo sapiens) (UniProt P27986+P42338); experiment: Inhibition of human PI3K p110beta/pI3K p85alpha at 1 uM using PIP2 as substrate in presence of biotinylated PIP3 and ATP and measured after 30 mins by HTRF method; format: protein-complex assay
[2] = molecular target: ALK tyrosine kinase receptor (Homo sapiens) (UniProt Q9UM73); experiment: Inhibition of human ALK using casein as substrate in presence of [gamma-33P]ATP at 1 uM after 40 mins by scintillation counter method
[3] = molecular target: Tyrosine-protein kinase ABL1 (Homo sapiens) (UniProt P00519); experiment: Inhibition of human Abl using EAIYAAPFAKK as substrate in presence of [gamma-33P]ATP at 1 uM after 40 mins by scintillation counter method
[4] = molecular target: Vascular endothelial growth factor receptor 2 (Homo sapiens) (UniProt P35968); experiment: Inhibition of human KDR using myelin basic protein as substrate in presence of [gamma-33P]ATP at 1 uM after 40 mins by scintillation counter method
[5] = molecular target: Mitogen-activated protein kinase 8 (Homo sapiens) (UniProt P45983); experiment: Inhibition of human JNK1alpha1 using ATF2 as substrate in presence of [gamma-33P]ATP at 1 uM after 40 mins by scintillation counter method
[6] = molecular target: T1, Mitogen-activated protein kinase kinase kinase 2 (Homo sapiens) (UniProt Q9Y2U5); experiment: Inhibition of human MEKK2 using myelin basic protein as substrate in presence of [gamma-33P]ATP at 1 uM after 40 mins by scintillation counter method
T1 sequence (whole entry): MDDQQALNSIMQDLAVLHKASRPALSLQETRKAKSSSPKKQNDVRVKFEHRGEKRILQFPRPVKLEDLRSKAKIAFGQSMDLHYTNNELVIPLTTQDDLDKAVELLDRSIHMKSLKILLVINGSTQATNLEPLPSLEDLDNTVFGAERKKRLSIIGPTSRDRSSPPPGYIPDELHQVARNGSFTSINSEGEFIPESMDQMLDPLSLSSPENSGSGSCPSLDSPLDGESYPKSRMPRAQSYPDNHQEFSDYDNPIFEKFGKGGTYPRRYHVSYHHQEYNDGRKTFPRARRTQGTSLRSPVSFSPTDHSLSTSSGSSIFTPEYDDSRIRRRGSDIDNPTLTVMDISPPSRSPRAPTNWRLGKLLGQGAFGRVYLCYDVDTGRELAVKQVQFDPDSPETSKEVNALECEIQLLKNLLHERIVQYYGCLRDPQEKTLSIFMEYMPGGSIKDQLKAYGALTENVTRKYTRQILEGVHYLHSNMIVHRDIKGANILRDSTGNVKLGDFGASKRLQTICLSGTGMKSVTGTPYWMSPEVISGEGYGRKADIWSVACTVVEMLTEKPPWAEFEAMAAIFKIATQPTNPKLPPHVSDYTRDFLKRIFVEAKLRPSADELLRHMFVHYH

[7] = molecular target: Proto-oncogene tyrosine-protein kinase Src (Homo sapiens) (UniProt P12931); experiment: Inhibition of human Src (1 to 530 residues) using GGEEEEYFELVKKKK as substrate in presence of [gamma-33P]ATP at 1 uM after 40 mins by scintillation counter method
[8] = molecular target: Mitogen-activated protein kinase 10 (Homo sapiens) (UniProt P53779); experiment: Inhibition of human JNK3 using substrate in presence of [gamma-33P]ATP at 1 uM after 40 mins by scintillation counter method
[9] = molecular target: Epidermal growth factor receptor (Homo sapiens) (UniProt P00533); experiment: Inhibition of human EGFR using poly(Glu, Tyr) 4:1 as substrate in presence of [gamma-33P]ATP at 1 uM after 40 mins by scintillation counter method
[10] = molecular target: Receptor-type tyrosine-protein kinase FLT3 (Homo sapiens) (UniProt P36888); experiment: Inhibition of human Flt3 using EAIYAAPFAKKK as substrate in presence of [gamma-33P]ATP at 1 uM after 40 mins by scintillation counter method
[11] = molecular target: Receptor tyrosine-protein kinase erbB-2 (Homo sapiens) (UniProt P04626); experiment: Inhibition of human ErbB2 using poly(Glu, Tyr) as substrate in presence of [gamma-33P]ATP at 1 uM after 40 mins by scintillation counter method
[12] = molecular target: Mitogen-activated protein kinase 9 (Homo sapiens) (UniProt P45984); experiment: Inhibition of human JNK2alpha2 using ATF2 as substrate in presence of [gamma-33P]ATP at 1 uM after 40 mins by scintillation counter method
[13] = molecular target: T2, Tyrosine-protein kinase JAK3 (Homo sapiens) (UniProt P52333); experiment: Inhibition of human JAK3 using GGEEEEYFELVKKKK as substrate in presence of [gamma-33P]ATP at 1 uM after 40 mins by scintillation counter method
T2 sequence (whole entry): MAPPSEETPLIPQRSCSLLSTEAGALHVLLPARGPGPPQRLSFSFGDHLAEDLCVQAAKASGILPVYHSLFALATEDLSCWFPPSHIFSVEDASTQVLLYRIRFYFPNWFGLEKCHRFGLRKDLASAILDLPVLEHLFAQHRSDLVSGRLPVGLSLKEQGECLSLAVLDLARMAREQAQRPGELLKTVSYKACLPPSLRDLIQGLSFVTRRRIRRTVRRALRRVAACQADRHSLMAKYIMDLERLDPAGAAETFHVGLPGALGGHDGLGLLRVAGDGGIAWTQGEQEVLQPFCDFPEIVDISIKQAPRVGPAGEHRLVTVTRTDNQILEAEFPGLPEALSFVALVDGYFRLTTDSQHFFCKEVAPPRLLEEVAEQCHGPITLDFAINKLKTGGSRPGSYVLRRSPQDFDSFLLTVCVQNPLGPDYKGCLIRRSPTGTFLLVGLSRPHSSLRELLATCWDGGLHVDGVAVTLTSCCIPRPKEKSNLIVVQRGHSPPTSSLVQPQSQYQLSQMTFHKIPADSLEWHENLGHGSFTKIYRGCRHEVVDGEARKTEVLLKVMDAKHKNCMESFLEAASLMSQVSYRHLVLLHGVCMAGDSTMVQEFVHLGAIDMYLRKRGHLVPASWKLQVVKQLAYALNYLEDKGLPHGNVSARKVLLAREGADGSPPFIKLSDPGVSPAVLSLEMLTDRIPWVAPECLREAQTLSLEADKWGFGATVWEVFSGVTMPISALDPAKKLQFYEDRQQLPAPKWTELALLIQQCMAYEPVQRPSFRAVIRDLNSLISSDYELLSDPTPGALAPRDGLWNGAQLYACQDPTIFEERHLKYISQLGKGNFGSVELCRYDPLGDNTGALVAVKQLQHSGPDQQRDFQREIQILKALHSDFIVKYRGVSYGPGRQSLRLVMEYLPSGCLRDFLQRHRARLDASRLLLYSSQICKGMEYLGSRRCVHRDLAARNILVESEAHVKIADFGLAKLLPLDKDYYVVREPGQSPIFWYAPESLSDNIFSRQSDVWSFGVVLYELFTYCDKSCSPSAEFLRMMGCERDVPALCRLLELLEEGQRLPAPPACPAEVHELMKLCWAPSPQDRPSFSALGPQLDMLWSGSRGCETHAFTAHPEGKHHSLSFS

Chain of PI3K p110 beta/p85 alpha (Homo sapiens) (P27986 2-724 limits assumed): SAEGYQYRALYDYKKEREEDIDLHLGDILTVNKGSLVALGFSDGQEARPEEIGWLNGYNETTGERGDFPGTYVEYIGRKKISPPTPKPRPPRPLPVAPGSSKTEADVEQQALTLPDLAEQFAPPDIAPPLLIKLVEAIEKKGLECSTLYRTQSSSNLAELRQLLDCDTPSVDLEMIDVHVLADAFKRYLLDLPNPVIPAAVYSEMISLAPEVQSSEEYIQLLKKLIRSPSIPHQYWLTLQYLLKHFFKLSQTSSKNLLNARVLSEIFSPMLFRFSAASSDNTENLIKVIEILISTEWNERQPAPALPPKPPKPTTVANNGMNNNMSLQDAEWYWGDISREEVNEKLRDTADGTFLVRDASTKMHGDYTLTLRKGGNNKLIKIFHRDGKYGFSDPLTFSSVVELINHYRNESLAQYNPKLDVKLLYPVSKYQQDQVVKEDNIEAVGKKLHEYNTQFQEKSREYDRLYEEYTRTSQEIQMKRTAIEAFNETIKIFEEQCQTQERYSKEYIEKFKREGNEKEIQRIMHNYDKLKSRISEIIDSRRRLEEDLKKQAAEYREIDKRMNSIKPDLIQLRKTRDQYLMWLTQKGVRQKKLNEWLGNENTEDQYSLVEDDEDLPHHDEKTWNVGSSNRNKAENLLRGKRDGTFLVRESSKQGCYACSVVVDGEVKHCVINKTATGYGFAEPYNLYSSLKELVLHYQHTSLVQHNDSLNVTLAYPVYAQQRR
Chain of PI3K p110 beta/p85 alpha (Homo sapiens) (P42338 whole entry partner): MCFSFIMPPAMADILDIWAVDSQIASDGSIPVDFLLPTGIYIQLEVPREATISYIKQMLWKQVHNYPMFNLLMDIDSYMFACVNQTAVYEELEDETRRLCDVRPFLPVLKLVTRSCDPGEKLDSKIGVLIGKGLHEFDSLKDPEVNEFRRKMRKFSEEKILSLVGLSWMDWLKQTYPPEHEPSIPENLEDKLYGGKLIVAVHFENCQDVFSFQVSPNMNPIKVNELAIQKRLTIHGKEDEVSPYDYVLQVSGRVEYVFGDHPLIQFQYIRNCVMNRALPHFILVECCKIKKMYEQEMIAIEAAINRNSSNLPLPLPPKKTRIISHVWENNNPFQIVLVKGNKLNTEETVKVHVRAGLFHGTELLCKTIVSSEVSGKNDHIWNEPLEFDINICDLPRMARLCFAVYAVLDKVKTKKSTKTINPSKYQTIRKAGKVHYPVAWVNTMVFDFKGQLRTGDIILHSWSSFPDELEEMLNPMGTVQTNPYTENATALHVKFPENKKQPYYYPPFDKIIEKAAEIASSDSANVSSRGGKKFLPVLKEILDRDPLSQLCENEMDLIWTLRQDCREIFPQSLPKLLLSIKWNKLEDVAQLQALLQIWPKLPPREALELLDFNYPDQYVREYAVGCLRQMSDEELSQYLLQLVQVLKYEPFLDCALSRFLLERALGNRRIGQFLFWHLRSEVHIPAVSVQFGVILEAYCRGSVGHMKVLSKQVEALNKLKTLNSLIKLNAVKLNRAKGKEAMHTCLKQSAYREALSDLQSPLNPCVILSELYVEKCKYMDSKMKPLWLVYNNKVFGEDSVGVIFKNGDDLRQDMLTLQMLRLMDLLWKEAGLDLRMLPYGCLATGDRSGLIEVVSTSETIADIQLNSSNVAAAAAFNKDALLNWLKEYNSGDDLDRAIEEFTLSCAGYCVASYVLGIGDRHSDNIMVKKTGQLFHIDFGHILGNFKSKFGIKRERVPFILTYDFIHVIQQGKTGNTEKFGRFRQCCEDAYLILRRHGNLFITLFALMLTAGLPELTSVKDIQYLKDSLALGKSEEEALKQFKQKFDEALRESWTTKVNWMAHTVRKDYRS
Chain of Tyrosine-protein kinase ABL1 (Homo sapiens) (P00519 whole entry): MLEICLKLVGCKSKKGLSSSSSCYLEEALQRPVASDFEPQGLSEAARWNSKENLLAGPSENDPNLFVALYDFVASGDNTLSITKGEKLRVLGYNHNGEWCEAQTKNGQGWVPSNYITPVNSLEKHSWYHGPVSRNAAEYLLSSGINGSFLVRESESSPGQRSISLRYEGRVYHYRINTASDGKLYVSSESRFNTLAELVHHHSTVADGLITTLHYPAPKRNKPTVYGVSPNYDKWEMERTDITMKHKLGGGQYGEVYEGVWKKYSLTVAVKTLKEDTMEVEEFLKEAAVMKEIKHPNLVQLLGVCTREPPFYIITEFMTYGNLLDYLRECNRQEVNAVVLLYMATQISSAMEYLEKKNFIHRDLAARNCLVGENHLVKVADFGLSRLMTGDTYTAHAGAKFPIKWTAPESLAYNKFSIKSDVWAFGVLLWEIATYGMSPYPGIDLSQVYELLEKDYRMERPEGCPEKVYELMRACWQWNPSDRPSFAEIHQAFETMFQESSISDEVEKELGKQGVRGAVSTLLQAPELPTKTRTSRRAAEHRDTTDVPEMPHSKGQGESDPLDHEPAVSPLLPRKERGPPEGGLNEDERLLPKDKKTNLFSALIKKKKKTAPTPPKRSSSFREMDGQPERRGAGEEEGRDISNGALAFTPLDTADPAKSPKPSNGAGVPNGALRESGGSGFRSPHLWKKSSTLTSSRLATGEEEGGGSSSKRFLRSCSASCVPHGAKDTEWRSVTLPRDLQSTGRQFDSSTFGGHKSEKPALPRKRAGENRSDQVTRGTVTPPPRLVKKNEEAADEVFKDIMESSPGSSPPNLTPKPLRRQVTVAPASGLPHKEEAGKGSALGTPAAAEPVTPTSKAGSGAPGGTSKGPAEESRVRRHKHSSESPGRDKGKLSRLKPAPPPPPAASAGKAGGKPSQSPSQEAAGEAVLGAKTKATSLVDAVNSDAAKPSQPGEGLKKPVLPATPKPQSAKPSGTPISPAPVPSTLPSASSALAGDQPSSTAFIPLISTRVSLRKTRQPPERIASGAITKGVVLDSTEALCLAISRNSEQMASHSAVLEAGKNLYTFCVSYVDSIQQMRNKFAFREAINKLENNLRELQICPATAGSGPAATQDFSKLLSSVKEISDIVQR
Chain of Receptor tyrosine-protein kinase erbB-2 (Homo sapiens) (P04626 whole entry): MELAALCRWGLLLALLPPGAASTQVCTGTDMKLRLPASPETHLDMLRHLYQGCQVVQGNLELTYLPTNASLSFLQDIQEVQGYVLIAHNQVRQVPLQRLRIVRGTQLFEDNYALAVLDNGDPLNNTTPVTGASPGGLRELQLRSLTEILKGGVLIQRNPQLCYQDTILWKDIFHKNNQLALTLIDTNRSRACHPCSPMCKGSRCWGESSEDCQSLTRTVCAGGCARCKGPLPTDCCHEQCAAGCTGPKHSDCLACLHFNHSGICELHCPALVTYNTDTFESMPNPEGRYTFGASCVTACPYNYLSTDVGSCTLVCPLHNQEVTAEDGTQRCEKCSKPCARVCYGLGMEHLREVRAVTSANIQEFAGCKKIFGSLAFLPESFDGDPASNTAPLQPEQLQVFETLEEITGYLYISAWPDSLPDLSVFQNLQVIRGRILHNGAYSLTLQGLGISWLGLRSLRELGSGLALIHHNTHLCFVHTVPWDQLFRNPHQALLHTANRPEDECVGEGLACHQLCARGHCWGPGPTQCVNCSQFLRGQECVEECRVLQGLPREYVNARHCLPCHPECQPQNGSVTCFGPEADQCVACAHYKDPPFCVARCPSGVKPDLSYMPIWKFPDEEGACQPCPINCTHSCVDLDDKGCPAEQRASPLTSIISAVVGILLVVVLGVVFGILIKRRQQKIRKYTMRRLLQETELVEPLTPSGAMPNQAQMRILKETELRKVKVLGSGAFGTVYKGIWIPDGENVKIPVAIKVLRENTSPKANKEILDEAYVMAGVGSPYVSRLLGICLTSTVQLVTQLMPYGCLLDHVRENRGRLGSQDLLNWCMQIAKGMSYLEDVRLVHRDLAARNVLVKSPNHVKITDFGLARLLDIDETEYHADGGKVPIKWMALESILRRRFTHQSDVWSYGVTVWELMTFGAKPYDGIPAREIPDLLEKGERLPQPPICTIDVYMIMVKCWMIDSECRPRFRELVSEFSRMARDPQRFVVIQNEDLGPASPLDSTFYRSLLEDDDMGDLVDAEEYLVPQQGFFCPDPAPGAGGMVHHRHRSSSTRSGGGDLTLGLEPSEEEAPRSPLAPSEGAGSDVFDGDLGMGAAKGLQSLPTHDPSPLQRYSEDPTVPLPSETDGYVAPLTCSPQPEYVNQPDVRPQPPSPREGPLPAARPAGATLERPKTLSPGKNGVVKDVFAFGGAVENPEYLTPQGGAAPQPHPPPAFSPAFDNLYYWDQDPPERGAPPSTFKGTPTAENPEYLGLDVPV
Chain of Proto-oncogene tyrosine-protein kinase Src (Homo sapiens) (P12931 2-536 limits assumed): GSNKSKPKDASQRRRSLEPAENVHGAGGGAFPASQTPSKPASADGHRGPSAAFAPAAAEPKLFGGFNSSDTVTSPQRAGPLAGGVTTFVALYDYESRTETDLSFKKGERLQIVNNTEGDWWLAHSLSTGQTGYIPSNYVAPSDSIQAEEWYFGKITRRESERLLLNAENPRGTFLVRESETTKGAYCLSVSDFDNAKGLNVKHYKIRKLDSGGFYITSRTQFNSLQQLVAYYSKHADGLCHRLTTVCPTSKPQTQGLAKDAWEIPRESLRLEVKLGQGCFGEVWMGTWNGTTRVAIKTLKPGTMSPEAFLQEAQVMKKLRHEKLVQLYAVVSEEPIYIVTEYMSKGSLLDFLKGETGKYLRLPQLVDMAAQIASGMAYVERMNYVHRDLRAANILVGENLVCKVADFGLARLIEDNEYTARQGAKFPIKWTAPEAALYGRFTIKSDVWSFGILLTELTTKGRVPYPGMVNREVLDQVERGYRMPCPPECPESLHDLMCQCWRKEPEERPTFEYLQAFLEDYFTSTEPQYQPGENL

| Structure (SMILES) | inhibition [1] [%] | inhibition [2] [%] | inhibition [3] [%] | inhibition [4] [%] | inhibition [5] [%] | inhibition [6] [%] | inhibition [7] [%] | inhibition [8] [%] | inhibition [9] [%] | inhibition [10] [%] | inhibition [11] [%] | inhibition [12] [%] | inhibition [13] [%] |
| --- | --- | --- | --- | --- | --- | --- | --- | --- | --- | --- | --- | --- | --- |
| CC(C)n1cnc2c(Nc3cc(N)cc(Cl)c3)nc(N[C@@H]3CCCC[C@@H]3N)nc21 (racemic) | 4 | 10 | 8 | 4 | -6 | 48 | 78 | -10 | -1 | 93 | 3 | -6 | 0 |
| CC(C)n1cnc2c(Nc3cccc(Cl)c3)nc(N[C@@H]3CCCC[C@@H]3N)nc21 | 4 | -2 | 2 | -6 | -1 | 18 | 69 | -5 | 3 | 90 | 0 | 4 | 4 |
| CC(C)n1cnc2c(Nc3cccc(Cl)c3)nc(N[C@H]3CCCC[C@@H]3N)nc21 | 5 | 7 | -2 | 16 | 3 | 47 | 22 | 6 | -6 | 19 | 2 | 1 | 0 |
